From patent US20250032403A1, “COMPOSITIONS FOR TREATING PERIODONTAL DISEASES” (GR Biosystems, Inc., priority 2017, published 2025)
“Also recorded” adds a separate entry of the source.

How the values were obtained:
MMP-9 [1] = assay: Real time quantitative PCR of MMP-9 gene expression in HGF-1 cells; type: cell-based, human
Protocol: (§1) Gene expression of MMPs was evaluated after treatment under different conditions. The tissue culture was washed with PBS. […] All samples were treated with Qiagen DNase (Cat #79254).
(§2) Real time quantitative PCR was performed on an Applied Biosciences StepOne plus instrument and analyzed with StepOne software v2.3. The relative amounts of transcripts from each gene were normalized to reference gene GAPDH and calculated as follows: ΔΔCT=the average ΔCT of […]−the average ΔCT of […], and their fold difference=2^−ΔΔCT as previously described.

TNF-α, IL-1β and IL-6 = settings: peritoneal and colonic macrophages; cited from earlier work
TNF-α and IL-1β = settings: peripheral blood mononuclear cells, PGG alone; cited from earlier work
MMP-2 = assay: Western blot of MMP-2 protein expression in LPS-induced HGF-1 cells; type: cell-based, human; settings: for MMP-2 production: HGF-1, LPS 5 μg/mL + curcumin 2.5, 5 or 10 μM, n=3, FIG. 15
Protocol: (§3) Human Gingival Fibroblasts (HGF-1) were purchased from ATCC (Manassas, VA) and were grown in DMEM with Glutamax, 10% FBS and Penicillin/Streptomycin (All from Gibco) and kept at 37° C. in a humidified air chamber with 5% CO2. Cells were seeded at 3×10^5 cells/flask for the experiments and then grown to confluency. Cells between 3 and 10 passages were used for all experiments.
(§4) 1,2,3,4,6-Penta-O-galloyl-β-D-glucose (purchased from Sigma-Aldrich) was dissolved in dimethylsulfoxide (DMSO) to obtain a 100 mM stock solution.
(§5) The supernatant was collected and assayed for protein concentration.
(§6) The gels were prepared by standard methods and electrophoresed for 1 hour at 150 V.
(§7) Incubation was done according to specific instructions from the manufacturer for each antibody. […] After incubation and washing with PBS-T, the membranes were incubated in the dark in blocking solution with 0.2% Tween, IRDye 800CW Goat anti-Rabbit IgG, and IRDye® 680RD Donkey anti-Mouse IgG (1:10000, LI-COR Biosciences, Lincoln, NE) for 1 hour at room temperature. The proteins were detected and visualized by fluorescence using the Licor Odyssey Classic Infrared Imaging system (LI-COR Biosciences, Lincoln, NE). Densitometry analysis of specific bands was performed with the Image Studio software provided by LI-COR Biosciences. Statistical analysis, including 1-way ANOVA with Dunnett's Multiple Comparison Test, was done using GraphPad Prism (GraphPad Software, La Jolla, CA).
Human gingival fibroblasts (HGF-1) were treated with lipopolysaccharide (LPS) from P. gingivalis to reproduce the type of inflammatory response seen in chronic periodontitis. Upon treatment with […], MMP-2 was released into the pericellular space to be activated by MMP-14. Subsequently, MMP-2 and MMP-14 activate MMP-13. […] LPS activation of MMP-2, MMP-13 and MMP-14, however, was attenuated by the administration of PGG.
(§8) HGF-1 cells were induced with LPS (5 μg/mL) to mimic the inflammatory process and Curcumin was added at different concentrations (2.5, 5 and 10 μM).

Human MMP-2; MMP2 = assay: Real time quantitative PCR of MMP-2 gene expression in HGF-1 cells; type: cell-based
Protocol: as §1, §2

TNF-α = settings: PBMCs, doses as low as 5 μM; cited from earlier work
MyD88 adaptor protein = target: T1, MyD88 adaptor protein (Mus musculus, UniProt P22366); settings: peritoneal and colonic macrophages; cited from earlier work
T1 construct: host or cells: peritoneal and colonic macrophages

MMP-9 [2] = assay: Western blot of MMP-9 protein expression in LPS-induced HGF-1 cells; type: cell-based, human; settings: FIG. 5
Protocol: as §3, §4, §5, §6
as §7, with “Statistical analysis, including 1-way ANOVA with Dunnett's Multiple Comparison Test, was done using GraphPad Prism (GraphPad Software, La Jolla, CA).” left out

MMPs = assay: Real time quantitative PCR of MMP gene expression (all MMPs tested) in HGF-1 cells; type: cell-based, human
Protocol: as §1, §2

[3] = system: toll-like receptors 4 (TLR4); settings: peritoneal and colonic macrophages; cited from earlier work
Human MMP-14; MMP14 = assay: Real time quantitative PCR of MMP-14 gene expression in HGF-1 cells; type: cell-based
Protocol: as §1, §2

Human MMP-13; MMP13 = assay: Real time quantitative PCR of MMP-13 gene expression in HGF-1 cells; type: cell-based
Protocol: as §1, §2

MMP-14 = assay: Western blot of MMP-14 protein expression in LPS-induced HGF-1 cells; type: cell-based, human
Protocol: as §3, §4, §5, §6
as §7, with “Statistical analysis, including 1-way ANOVA with Dunnett's Multiple Comparison Test, was done using GraphPad Prism (GraphPad Software, La Jolla, CA).” left out

MMP-13 = assay: Western blot of MMP-13 protein expression in LPS-induced HGF-1 cells; type: cell-based, human
Protocol: as §3, §4, §5, §6
as §7, with “Statistical analysis, including 1-way ANOVA with Dunnett's Multiple Comparison Test, was done using GraphPad Prism (GraphPad Software, La Jolla, CA).” left out

MMP-3 = assay: Western blot of MMP-3 protein expression in LPS-induced HGF-1 cells; type: cell-based, human
Protocol: as §3, §4, §5, §6, §7
HGF-1 cells were treated with lipopolysaccharide (LPS, 5 μg/mL) from P. gingivalis in order to reproduce the type of inflammatory response seen in chronic periodontitis.
as §8

[4] = HGF-1, LPS 5 μg/mL + PGG 100 μM, p<0.05, n=3
[5] = HGF-1, LPS + PGG 50-100 μM, FIG. 6
[6] = HGF-1, LPS + PGG 25 μM (lowest dose tested), 48 hours

T1 sequence (P22366 whole entry): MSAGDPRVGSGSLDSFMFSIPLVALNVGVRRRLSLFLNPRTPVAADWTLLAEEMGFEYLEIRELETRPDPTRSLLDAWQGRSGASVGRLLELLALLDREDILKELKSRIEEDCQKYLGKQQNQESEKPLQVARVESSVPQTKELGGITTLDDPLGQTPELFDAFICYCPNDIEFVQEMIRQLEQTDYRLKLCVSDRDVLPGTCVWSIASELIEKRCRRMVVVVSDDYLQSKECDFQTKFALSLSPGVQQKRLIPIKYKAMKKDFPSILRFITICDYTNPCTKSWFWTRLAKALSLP

O=C(OC[C@H]1O[C@@H](OC(=O)c2cc(O)c(O)c(O)c2)[C@H](OC(=O)c2cc(O)c(O)c(O)c2)[C@@H](OC(=O)c2cc(O)c(O)c(O)c2)[C@@H]1OC(=O)c1cc(O)c(O)c(O)c1)c1cc(O)c(O)c(O)c1 [PGG, 1,2,3,4,6-penta-O-galloyl-β-D-glucose]
MMP-9 gene expression compared with induction with LPS alone (MMP-9 [1]; [4]): significantly reduced the expression of MMP-9, MMP-13 and MMP-14
MMP-9 gene expression compared with LPS induction with or without PGG 25 μM (MMP-9 [1]; [5]): reduced MMP-2, MMP-9, MMP-13, and MMP-14 expression
production of TNF-α, IL-1β and IL-6 (TNF-α, IL-1β and IL-6): decreasing the production
cytokine production of PBMCs on treatment with PGG (TNF-α and IL-1β): resulted in the production of TNF-α and IL-1β
MMP-2 protein level after LPS treatment (MMP-2; [6]): reduction of these three MMPs to basal levels of production
MMP-2 levels compared to healthy control (MMP-2; HGF-1, PGG 100 μM, FIG. 1): reduced significantly; also recorded: lower than in healthy controls
MMP-2 expression compared to healthy controls (MMP-2; HGF-1, simultaneously treated with LPS and increasing PGG concentrations, FIG. 1): not significantly different than in healthy controls
MMP-2 gene expression (Human MMP-2; MMP2; HGF-1, LPS 5 μg/mL + PGG 100 μM, p<0.01, n=3, FIG. 6): decreased the expression of MMP-2 compared to treatment with PGG 25-50 μM, yet expression was still higher compared with healthy HGF-1
MMP-2 gene expression compared with LPS induction with or without PGG 25 μM (Human MMP-2; MMP2; [5]): reduced MMP-2, MMP-9, MMP-13, and MMP-14 expression
suppression of LPS-induced TNF-α production (TNF-α): ≤ 90%
interaction with MyD88 adaptor protein (MyD88 adaptor protein): interacted directly
MMP-9 protein level compared to LPS inflammatory control (MMP-9 [2]; HGF-1, LPS 5 μg/mL + PGG at a dose lower than 50 μM): decreased the MMP-9 level
MMP-9 protein level, return to normal levels (MMP-9 [2]; HGF-1, LPS 5 μg/mL + PGG): did not return to normal levels until it was treated with at least 50 μM PGG
MMP gene expression (MMPs; HGF-1, LPS 5 μg/mL + PGG 25 μM, FIG. 6): did not vary gene expression in a significant manner
MPP gene expression (MMPs; healthy HGF-1 (no LPS), PGG 100 μM): did not significantly change
interference with the binding of LPS to TLR4 [3]: did not interfere
MMP-14 gene expression compared with induction with LPS alone (Human MMP-14; MMP14; [4]): significantly reduced the expression of MMP-9, MMP-13 and MMP-14
MMP-14 gene expression compared with LPS induction with or without PGG 25 μM (Human MMP-14; MMP14; [5]): reduced MMP-2, MMP-9, MMP-13, and MMP-14 expression
MMP-13 gene expression compared with induction with LPS alone (Human MMP-13; MMP13; [4]): significantly reduced the expression of MMP-9, MMP-13 and MMP-14
MMP-13 gene expression compared with LPS induction with or without PGG 25 μM (Human MMP-13; MMP13; [5]): reduced MMP-2, MMP-9, MMP-13, and MMP-14 expression
MMP-14 expression in the PGG treated groups (MMP-14; HGF-1, LPS 5 μg/mL + PGG, 48 hour, FIG. 3): not significantly different than the healthy controls; also recorded: not significantly different from healthy controls
MMP-14 protein level after LPS treatment (MMP-14; [6]): reduction of these three MMPs to basal levels of production
MMP-13 protein level after LPS treatment (MMP-13; [6]): reduction of these three MMPs to basal levels of production
MMP-13 expression in the PGG treated groups (MMP-13; HGF-1, LPS + PGG, FIG. 2): not significantly different than the healthy controls; also recorded: prevented upregulation of MMP-13 in a dose-dependent manner
MMP-3 protein level (MMP-3; HGF-1, LPS 5 μg/mL + PGG 25 μM, FIG. 4): comparable to healthy control values
MMP-3 protein level (MMP-3; HGF-1, LPS 5 μg/mL + PGG 50 and 100 μM, p<0.001, FIG. 4): further reduced MMP-3 to levels below basal production

COc1cc(/C=C/C(=O)CC(=O)/C=C/c2ccc(O)c(OC)c2)ccc1O [curcumin, reference compound]
MMP-2 production (MMP-2): not significantly different that the untreated HGF-1
MMP-2 production (MMP-2; listed as Curcumin): decreased MMP-2 production
MMP-2 expression (MMP-2; HGF-1 treated with Curcumin 10 μM alone (no LPS), p>0.05, n=3): not significantly different from untreated HGF-1
MMP-3 production (MMP-3; HGF-1, LPS 5 μg/mL + curcumin 2.5, 5 and 10 μM, FIG. 16): decreased MMP-3 production
